Source: PubChem BioAssay (NCI)
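Cultured in 96-well plates, cells were exposed to test compound for 48 hours across five concentrations. At the GI50, growth is halved. TGI marks complete inhibition of growth.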

How the values were obtained:
Experiment in all cases: NCI-60 cell line screen, 48 h
IGROV1 ovarian = test system: IGROV1 ovarian
UO-31 renal = test system: UO-31 renal
K-562 leukemia = test system: K-562 leukemia
786-0 renal = test system: 786-0 renal
SNB-19 CNS = test system: SNB-19 CNS
HT29 colon = test system: HT29 colon
HCC-2998 colon = test system: HCC-2998 colon
CCRF-CEM leukemia = test system: CCRF-CEM leukemia
MALME-3M melanoma = test system: MALME-3M melanoma
RXF 393 renal = test system: RXF 393 renal

SMILES	GI50 (IGROV1 ovarian)	TGI (IGROV1 ovarian)	GI50 (UO-31 renal)	TGI (UO-31 renal)	GI50 (K-562 leukemia)	TGI (K-562 leukemia)	GI50 (786-0 renal)	TGI (786-0 renal)	GI50 (SNB-19 CNS)	TGI (SNB-19 CNS)	GI50 (HT29 colon)	TGI (HT29 colon)	GI50 (HCC-2998 colon)	TGI (HCC-2998 colon)	TGI (CCRF-CEM leukemia)	TGI (MALME-3M melanoma)	TGI (RXF 393 renal)	GI50 (RXF 393 renal)	GI50 (CCRF-CEM leukemia)	GI50 (MALME-3M melanoma)
COc1cc2c(c(OC)c1OC)C(=O)[C@@H]1c3ccc([N+](=O)[O-])cc3C(=O)N(CCCBr)[C@H]21	3.41 µM	21.3 µM	4.49 µM	25.7 µM	30.6 µM	> 100 µM	12.5 µM	33.1 µM	22 µM	> 100 µM	14.2 µM	> 100 µM	1.17 µM	7.51 µM	–	–	–	–	–	–
CCCCOC(=O)NC(=O)c1cn(C2CCCCC2)c(=O)[nH]c1=O	–	> 100 µM	–	46.2 µM	–	> 100 µM	–	40.1 µM	–	69.3 µM	–	> 100 µM	–	> 100 µM	> 100 µM	80.4 µM	–	–	–	–
CC(C)c1cc2c(O)c(c1)Cc1cc(C(C)C)cc(c1O)Cc1cc(C(C)C)cc(c1O)Cc1cc(C(C)C)cc(c1O)C2	–	> 100 µM	–	> 100 µM	–	> 100 µM	–	> 100 µM	–	> 100 µM	–	> 100 µM	–	–	> 100 µM	> 100 µM	> 100 µM	–	–	–
COC(=O)C(=Cc1cc(OC)c(OC)c(OC)c1-c1cc2c(cc1C(C)=O)OCO2)C(=O)OC	–	134 µM	–	–	–	> 211 µM	–	61.6 µM	–	69.6 µM	–	77 µM	–	70.4 µM	> 211 µM	78.3 µM	63.7 µM	–	–	–
C=C1CC[C@@H]2[C@](C)(COC(C)=O)[C@H](OC(C)=O)CC[C@@]2(C)[C@@H]1CC(Nc1ccc(S(=O)(=O)Nc2ncccn2)cc1)C1=CCOC1=O (some centres not stated)	2.04 µM	4.41 µM	1.51 µM	2.97 µM	1.73 µM	11.7 µM	1.77 µM	3.39 µM	1.63 µM	3.76 µM	–	–	2.1 µM	3.81 µM	3.41 µM	–	3.58 µM	1.95 µM	0.738 µM	–
COC(=O)c1cc(C)c(C)c2c1NC(=O)CNC2=O	–	> 100 µM	–	91.6 µM	–	> 100 µM	–	> 100 µM	–	–	–	> 100 µM	–	> 100 µM	> 100 µM	–	> 100 µM	–	–	–
C=C[C@H]1C[C@@H]2C[C@@H]3[C@H]4C/C=C\C(=O)NCCCC5NC(=O)C(=C(O)/C=C/[C@@H]4CC(=O)[C@H]3[C@@H]2[C@H]1C)C5=O (some centres not stated)	0.212 µM	0.434 µM	0.15 µM	0.299 µM	–	–	0.173 µM	0.329 µM	0.286 µM	1 µM	1.88 µM	3.58 µM	1.41 µM	2.78 µM	–	0.56 µM	0.308 µM	0.165 µM	–	0.225 µM
CO[C@H]1C=C[C@@]23c4cc5c(cc4CO[C@]2(O)CN(C)[C@H]3C1)OCO5	–	> 100 µM	–	> 100 µM	–	> 100 µM	–	> 100 µM	–	> 100 µM	–	> 100 µM	–	> 100 µM	> 100 µM	> 100 µM	–	–	–	–
C=C(C)C1CCC2(C(=O)O)CCC3(C)C(CCC4C5(C)CCC(OC(=O)NCc6ccccc6)C(C)(C)C5CCC43C)C12 (configuration not stated)	–	> 100 µM	1.86 µM	34.5 µM	1.67 µM	> 100 µM	3.98 µM	> 100 µM	25.3 µM	> 100 µM	3.42 µM	30.4 µM	2.8 µM	> 100 µM	> 100 µM	54.1 µM	–	–	2.36 µM	5.5 µM
